Experimental data as given in the supplement of paper PMC10307832.

Tests used:
Test in all cases: relative viability (nuclei count vs DMSO), 5 days (fraction); higher = more cells survive
Axitinib + Lapatinib = compound: CNC(=O)c1ccccc1Sc1ccc2c(/C=C/c3ccccn3)n[nH]c2c1 [Axitinib] + CS(=O)(=O)CCNCc1ccc(-c2ccc3ncnc(Nc4ccc(OCc5cccc(F)c5)c(Cl)c4)c3c2)o1 [Lapatinib] (partner 2 µM)
Summary of the method: (§1)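 Relative viability equals treated-well nuclei counts divided by vehicle-well nuclei counts. Counts came from 4× images of lung cancer cell lines grown in 1536-well plates for 5 days after pin-tool dosing on the day after seeding. Dosing used one drug alone or a fixed anchor-drug dose plus five library-drug doses (not always all listed) in √10 steps, and values are medians of duplicate plates.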

Bemcentinib + Linsitinib = compound: Nc1nc(Nc2ccc3c(c2)CC[C@@H](N2CCCC2)CC3)nn1-c1cc2c(nn1)-c1ccccc1CCC2 [Bemcentinib] + C[C@]1(O)C[C@@H](c2nc(-c3ccc4ccc(-c5ccccc5)nc4c3)c3c(N)nccn32)C1 [Linsitinib] (partner 1 µM)
Summary of the method: as §1

Axitinib + Pictilisib = compound: CNC(=O)c1ccccc1Sc1ccc2c(/C=C/c3ccccn3)n[nH]c2c1 [Axitinib] + CS(=O)(=O)N1CCN(Cc2cc3nc(-c4cccc5[nH]ncc45)nc(N4CCOCC4)c3s2)CC1 [Pictilisib] (partner 1 µM)
Summary of the method: as §1

Axitinib + Pemetrexed = compound: CNC(=O)c1ccccc1Sc1ccc2c(/C=C/c3ccccn3)n[nH]c2c1 [Axitinib] + Nc1nc2[nH]cc(CCc3ccc(C(=O)N[C@@H](CCC(=O)O)C(=O)O)cc3)c2c(=O)[nH]1 [Pemetrexed] (partner 0.2 µM)
Summary of the method: as §1

With NCI-H650 the relative viability (Axitinib + Lapatinib; first compound 0.005 µM) was 0.792, the relative viability (Axitinib + Lapatinib; first compound 0.01581 µM) was 0.837 and the relative viability (Axitinib + Lapatinib; first compound 0.05 µM) was 1.08. For the same cell line, the relative viability (Axitinib + Lapatinib; first compound 0.1581 µM) was 0.919, the relative viability (Axitinib + Lapatinib; first compound 0.5 µM) was 0.932 and the relative viability (Bemcentinib + Linsitinib; first compound 0.04 µM) was 0.976. For the same cell line, the relative viability (Bemcentinib + Linsitinib; first compound 0.1265 µM) was 0.982, the relative viability (Bemcentinib + Linsitinib; first compound 0.4 µM) was 0.974 and the relative viability (Bemcentinib + Linsitinib; first compound 1.265 µM) was 0.823. The relative viability (Bemcentinib + Linsitinib; first compound 4 µM) was 0.774, the relative viability (Axitinib + Pictilisib; first compound 0.005 µM) was 0.9 and the relative viability (Axitinib + Pictilisib; first compound 0.01581 µM) was 1.03. The relative viability (Axitinib + Pictilisib; first compound 0.05 µM) was 0.764, the relative viability (Axitinib + Pictilisib; first compound 0.1581 µM) was 0.945 and the relative viability (Axitinib + Pictilisib; first compound 0.5 µM) was 0.846. For the same cell line, the relative viability (Axitinib + Pemetrexed; first compound 0.005 µM) was 1.09, the relative viability (Axitinib + Pemetrexed; first compound 0.01581 µM) was 0.808 and the relative viability (Axitinib + Pemetrexed; first compound 0.05 µM) was 1.04. For the same cell line, the relative viability (Axitinib + Pemetrexed; first compound 0.1581 µM) was 1.02 and the relative viability (Axitinib + Pemetrexed; first compound 0.5 µM) was 0.855.
